Source: publication PMC4535312 (ChemMedChem, 2014)

How the values were obtained:
influenza virus [1] = conditions: in vivo; cited from earlier work
A/Anhui/01/2013 (H7N9) = assay type: cell-based, influenza; conditions: A549 cells, 10 μM for 1 hour before infection, 1 MOI H7N9, 24 hours post infection, titrated on MDCK cells
[2] = test system: A/Brisbane/10/2007 (H3N2); assay type: cell-based, influenza
[3] = test system: A/California/04/2009 (H1N1); assay type: cell-based, influenza
influenza virus [4] = conditions: in vitro; cited from earlier work

In the case of `O=C(NCCN1CCC2(CC1)C(=O)NCN2c1cccc(F)c1)c1ccc2ccccc2c1` [compound 3], the survival (influenza virus [1]) is listed as “increased survival”, the viral titer (influenza virus [1]) is listed as “reduced viral titer” and the “viral reproduction (TCID50)” value (A/Anhui/01/2013 (H7N9)) is listed as “significantly lowered viral reproduction”. The “viral reproduction (TCID50)” value [2] was “significantly lowered viral reproduction”, the “viral reproduction (TCID50)” value [3] was “significantly lowered viral reproduction” and the viral entry (influenza virus [4]) was “delayed viral entry”. The viral titers (influenza virus [4]) was “reduced viral titers” and the “cellular toxicity in microscopic image” value (A549 cells) was “significant cellular toxicity”.
